Patent publication US6960610B2, “Use of glycogen phosphorylase inhibitors for treatment of cardiovascular diseases” (Novo Nordick, A/S, priority 2002, dated 2005)

How the values were obtained:
[1] = test system: isolated perfused rabbit hearts; experiment: Ischemia induced arrhythmia in the isolated perfused rabbit heart (Langendorff); details: 0.4 μg/ml, n=7
Protocol: The model evaluates the effect of a test compound on ischemia induced arrhythmia in isolated perfused rabbit hearts. The hearts were excised from rabbits and perfused via an aortic canula in a Langendorff set-up equipped with ECG and MAP electrodes. Global normotherm ischemia was induced by turning off the perfusion for 30 min. After 30 min the heart was reperfused and the total duration of arrhythmia was determined. Furthermore, ECG and surface monophasic action potentials (MAPS) were scored to describe the severity of ischemic damage.

[2] = test system: Rabbits (myocardial infarct); experiment: Anaesthetised rabbit model of myocardial infarction induced by transient coronary artery occlusion; assay type: in vivo; details: 10 mg/kg b.i.d.; left coronary artery ligated 30 min, reperfusion 2 hours
Protocol: Method: Rabbits were anaesthetized and mechanically ventilated with oxygen enriched air. A thoracotomy was performed and an infarct was produced by ligating the left coronary artery for 30 min. After 30 min. the heart was reperfused for 2 hours. The heart was excited and reperfused in Langendorff mode. The coronary artery was reoccluded and the heart was perfused with ink to delineate the area at risk. The heart was removed and cut into 2 mm slices and stained with triphenyl tetrazolium chloride. The area at risk and the infarct size was determined by planimetry.

heart tissue glycogen = experiment: Glycogen content of heart tissue following global ischemia; details: in the presence of 0.4 μg/ml compound
Protocol: Method: The glycogen contents of freeze-clamped heart samples were determined enzymatically as μmol of glycosyl units per gram wet weight after boiling the tissue in 0.4 N KOH and subsequent degradation of glycogen with amyloglycosidase

## OC[C@H]1NC[C@@H](O)[C@@H]1O [(2R,3R,4R)-3,4dihydroxy-2-hydroxymethylpyrrolidine]
[1]; 30 min global ischemia, reperfusion, without compound 2.3±0.3
  MAP score: 0.9±0.1
[1]; 30 min global ischemia, reperfusion, without compound 2.4±0.2
  ECG score: 0.7±0.3
[1]; 30 min global normotherm ischemia, then reperfusion, without compound 18.0±5.6
  average arrhythmia length following reperfusion: 0.0 ± 0.0 min
[2]
  reduction of infarct size compared to untreated rabbits: 45%
Heart tissue glycogen; starting value
  glycogen content before ischemia: 16.9±1.5 glycosyl units/g wet weight
Heart tissue glycogen; without compound 2.6±0.8
  glycogen content after 30 min. of global ischemia: 6.9±1.1 glycosyl units/g wet weight
